The text below walks through data of patent US6531610B1 (Abbott Laboratories, priority 1989, dated 2003).

One may read the IC50 as the concentration needed to halve the response being measured. The melting point is the temperature of the solid-liquid transition. The inhibition is the change of the read-out against control, counted positive when it falls.

In data set [1] the test system is HIV-13B in MT4 cells. The data set can be described thus: Antiviral activity: inhibition of the cytopathic effect of HIV in MT4 cells. The format is cell-based, HIV-1. (In general: Damage to the host cells serves as the signal in cytopathic effect assays.)
Data set [2] relates to MT4 cells. As to the kind of experiment: in vitro. The format is cell-based. The note with it: concentration at which 50% of the cells remain viable; MT4 cells; read-out: LC50 (the source's name). An excerpt: (§1) The anti-HIV activity of the compounds of the invention can be determined in MT4 cells according to the procedure of Kempf, et. al. (Antimicrob. Agents Chemother. 1991, 35, 2209).

In data set [3] the target is HIV-1 protease (Human immunodeficiency virus type 1 group M subtype B, UniProt P04585). The data set can be described thus: Fluorogenic assay for screening inhibitors of HIV protease. Conditions: Inhibitor Concentration 0.5 nanomolar, fluorogenic substrate, pH 4.5, read-out: Percent Inhibition. The format is biochemical. How it is done: The inhibitory potency of the compounds of the invention can be determined by the following method.
A compound of the invention is dissolved in DMSO and a small aliquot further diluted with DMSO to 100 times the final concentration desired for testing. The reaction is carried out in a 6×50 mm tube in a total volume of 300 microliters. The final concentrations of the components in the reaction buffer are: 125 mM sodium acetate, 1 M sodium chloride, 5 mM dithiothreitol, 0.5 mg/ml bovine serum albumin, 1.3 μM fluorogenic substrate, 2% (v/v) dimethylsulfoxide, pH 4.5. After addition of inhibitor, the reaction mixture is placed in the fluorometer cell holder and incubated at […] for several minutes. The reaction is initiated by the addition of a small aliquot of cold HIV protease. The fluorescence intensity (excitation 340 nm, emission 490 nm) is recorded as a function of time. The reaction rate is determined for the first six to eight minutes. The observed rate is directly proportional to the moles of substrate cleaved per unit time. The percent inhibition is 100×(1-(rate in presence of inhibitor)/(rate in absence of inhibitor)).
Fluorogenic substrate: Dabcyl-[…]EDANS wherein DABCYL=4-(4-dimethylamino-phenyl)azobenzoic acid and EDANS=5-((2-aminoethyl)amino)-naphthalene-1-sulfonic acid.

A short description of data set [4]: in vitro. The data set is classed as cell-based. The note with it: human.
Excerpt: as §1

Setting [5] is: concentration giving 50% inhibition of the cytopathic effect of HIV, HIV-13B in MT4 cells, read-out: IC50.
Setting [6] is: Human immunodeficiency virus 1, MT4, read-out: IC50.
[7] abbreviates: Human immunodeficiency virus 1, MT4.
Setting [8] is: concentration at which 50% of the cells remain viable, MT4 cells, read-out: LC50 (the source's name).

Structures are written as SMILES. Structures can show the parent of a compound that is named as a salt. Where two headings read alike, the source gives them in different places. Some results are limits rather than exact numbers.

For `CC(C)c1nc(CC(=O)N[C@H](C(=O)N[C@@H](Cc2ccccc2)C[C@H](O)[C@H](Cc2ccccc2)NC(=O)OCc2cncs2)C(C)C)cs1` [Example 50], the IC50 in data set [1] (setting [5]) lay in the range of 150 to 270 nM. In addition, in data set [2], the CC50 was above 100000 nM.

As for `CC(C)c1nc(CN(C)C(=O)N[C@H](C(=O)N[C@@H](Cc2ccccc2)C[C@H](O)[C@H](Cc2ccccc2)NC(=O)OCc2cnco2)C(C)C)co1` [Example 19], the IC50 in data set [1] (setting [5]) is 22 to 48 nM. In addition, in data set [2], the CC50 turned out to be 87000 nM.

In the case of `CC(C)c1csc(COC(=O)N[C@H](C(=O)N[C@@H](Cc2ccccc2)C[C@H](O)[C@H](Cc2ccccc2)NC(=O)OCc2cncs2)C(C)C)n1` [Example 21, (2S,3S,5S)-5-(N-(N-((4-Isopropyl-2-thiazolyl)methoxycarbonyl)valinyl)amino)-2-(N-((5-thiazolyl)methoxycarbonyl)amino)-1,6-diphenyl-3-hydroxyhexane], the melting point lay in the range of 62 to 64 °C.

On to `CC(C)c1nc(CN(NC(=O)OC(C)(C)C)C(=O)N[C@H](C(=O)N[C@@H](Cc2ccccc2)C[C@H](O)[C@H](Cc2ccccc2)NC(=O)OCc2cncs2)C(C)C)cs1` [Example 62, (2S,3S,5S)-5-(N-(N-((N-(tert-Butyloxycarbonylamino)-N-((2-isopropyl-4-thiazolyl)methyl)amino)carbonyl)valinyl)amino)-2-(N-((5-thiazolyl)methoxycarbonyl)amino)-1,6-diphenyl-3-hydroxyhexane], for which the inhibition at 0.0005 µM in data set [3] was determined as 54%. In data set [1] (setting [6]), the IC50 lay within 690 to 1000 nM. In data set [4], the CC50 came to 17000 nM.

Turning to `CC(C)c1nc(CN(N)C(=O)N[C@H](C(=O)N[C@@H](Cc2ccccc2)C[C@H](O)[C@H](Cc2ccccc2)NC(=O)OCc2cncs2)C(C)C)cs1` [Example 63, (2S,3S,5S)-5-(N-(N-((N-(Amino)-N-((2-isopropyl-4-thiazolyl)methyl)amino)carbonyl)valinyl)amino)-2-(N-((5-thiazolyl)methoxycarbonyl)amino)-1,6-diphenyl-3-hydroxyhexane Hydrochloride], the inhibition at 0.0005 µM in data set [3] turned out to be 61%. This compound also had an IC50 in data set [1] (setting [7]) of 130 to 180 nM. Besides, the CC50 in data set [4] (setting [8]) came to 45000 nM.

Take `CC(C)[C@H](NC(=O)OCc1csc(N2CCCC2)n1)C(=O)N[C@@H](Cc1ccccc1)C[C@H](O)[C@H](Cc1ccccc1)NC(=O)OCc1cncs1` [Example 13, (2S,3S,5S)-5-(N-(N-((2-(1-Pyrrolidinyl)-4-thiazolyl)methoxycarbonyl)valinyl)amino)-2-(N-((5-thiazolyl)methoxycarbonyl)amino)-1,6-diphenyl-3-hydroxyhexane]: the inhibition at 0.0005 µM in data set [3] stood at 46%. The IC50 in data set [1] (setting [6]) was 56 to 88 nM. The CC50 in data set [4] was 56000 nM.

Turning to `CC(C)c1nc(COC(=O)N[C@H](C(=O)N[C@@H](Cc2ccccc2)[C@@H](O)C[C@@H](Cc2cncs2)NC(=O)OCc2cncs2)C(C)C)cs1` [Example 65, (2S,3S,5S)-2-(N-(N-((2-Isopropyl-4-thiazolyl)methoxycarbonyl)valinyl)amino)-1-phenyl-5-(N-((5-thiazolyl)methoxycarbonyl)amino)-6-(5-thiazolyl)-3-hydroxyhexane], the inhibition at 0.0005 µM in data set [3] turned out to be 70%. Also, the IC50 in data set [1] (setting [6]) lay within 120 to 200 nM. This compound registered a CC50 in data set [4] above 100000 nM.

Take `CCN(Cc1csc(C2CCCC2)n1)C(=O)N[C@@H](C)C(=O)N[C@@H](Cc1ccccc1)C[C@H](O)[C@H](Cc1ccccc1)NC(=O)OCc1cncs1` [Example 60]: the inhibition at 0.0005 µM in data set [3] came out at 44%. The IC50 in data set [1] (setting [7]) was in the range of 340 to 510 nM. Moreover, the CC50 in data set [4] (setting [8]) was 17000 nM.
